The results in this text go back to patent publication US20230331781A1, “PAR4 DERIVED PEPTIDES, ANALOGS AND USES THEREOF” (Yissum Research Development Company of the Hebrew …, priority 2019, published 2023).

Numbered stars: 1 amine (or outer) side, 2 acyl side, 3 side chain; on linkers, the order of the positions; unused ones are H or OH. Bridge positions count the residues as written; N and C are the ends. Square brackets hold non-standard residues; d marks the D form. Ends that are not written are not given here. GlyBU(C4) = Gly building unit (N-alpha-functionalized Gly) carrying a C4 alkyl chain (n = m = 4), bridged through a urea group; CO = O=C([*:1])[*:2]

For the test, the system named is RKO/hPar4 cells. The test can be described thus: Xenograft tumor model, RKO/hPar4 clone inoculated subcutaneously in nude mice. The conditions noted are these: for tumor growth / tumor size: RKO/hPar4 in nude mice, s.c. at tumor site, 100 μM, 0.25 mg/30 gm, 3 times/week, from day of inoculation or 4 days later, 32 days. It is filed as in vivo. As for the experimental part: FIG. 9A. A clone of RKO/PAR4 overexpressing cells (1×10^6) were injected subcutaneously into nude mice. PAR4 c(4-4) (100 μM; 0.25 mg/30 gm) was subcutaneously injected, at the site of the tumor either at the same day of RKO/PAR4 clone inoculation or 4 days later. The inhibitor was applied repeatedly 3 times/week for 3 weeks. Mice were weighted every 3 days and tumor size was measured. Mice were sacrificed after 32 days. […] Tumors were weighed and measured for size at the indicated time points and tumor volume was calculated05. FIG. 9C. qPCR of a representative RKO stable clone of PAR4. Error bars show s.d.; *** P<0.001. FIG. 9D. IHC of RKO/PAR4 derived tumors. Immunohistochemistry of RKO compared to small tumors in the presence of PAR4 c(4-4) inhibitor. Levels of proliferation in the large and small tumors were indicated by applying anti ki67 abs (FIG. 9Da and 9Db). For apoptosis, application of active caspase-3 Abs were applied (FIG. 9Dc and 9Dd). […] FIG. 9E. Histograms representing positive IHC in each treatment group. […] Hematoxilyn & eosin staining of large (left panel) and small (right panel) tumors distinctly indicate to the appearance of a wide basement membrane in the small tumors whereas a thinner and cell-invaded basement membrane is observed in large tumors.
We have generated stable clones overexpressing PAR4 in RKO cells, a non-aggressive colon cancer cell line (expressing wt p53), by infecting the cells with HA-hPar4 virus. This was followed by selection using Geneticin G418 resistance (500 μg/ml) to produce RKO/hPar4 clones. Clone efficiency generation was evaluated using qPCR analyses.
Male athymic nude mice aged 6-7 weeks were pre-implanted subcutaneously with the relevant cells (1×10^6 cells): either with HCT-116 or with RKO/hPar4 cells.
The inhibitor was injected at the site of the tumor at the day of inoculation. In an additional group, mice implanted with HCT-116 were administered with the inhibitor at day 4 after inoculation. The inhibitor ([…]) was applied repeatedly 3 times/week to all mice after the first administration of the inhibitor.
Mice were monitored for tumor size by external caliber measurements (length and width) on days 7, 14, 22 and for up to 32 days, if tumor burden allowed. Tumor volume (V) was calculated by V=L×W^2×0.5, where L is length and W is width. At the end of the experiment, mice were euthanized and tumors were removed, weighed and fixed in formalin for histology. All mice survived to the end of the experiment. All animal experiments were approved by the animal committee of the Hebrew University (MD-19-15924). In fact, for the xenograft tumor formation we have utilized two types of cell lines; the HCT116 cells, an aggressive colon cancer cell line, overexpressing oncogenes among of which is also PAR4, (FIGS. 10A and 10B) and clone/s overexpressing Par4, generated in RKO cell line; RKO/hPar4 cells (FIG. 9A-9C). HCT116 (1×10^6) and RKO/hPar4 (1×10^6) clone/s were inoculated subcutaneously in nude mice. The Pc(4-4) cyclic peptide was injected at the site of the tumor (100 μM; 0.25 mg/30 gram mouse), either at the time of tumor cell injection or 4 days after tumor-cell implantation. The Pc(4-4) cyclic peptide was applied repeatedly 3 times/week. The HCT116 cell inoculation generated large tumors and were terminated after 20 days, whereas the RKO/Par4 inoculation developed tumors on a slower pace and were terminated after 32 days. […] The powerful inhibition of tumor growth was seen regardless of whether the Pc(4-4) cyclic peptide was applied at the same time of tumor inoculation or applied 4 days later. This was obtained irrespective of using an aggressive colon cancer cell line or stable RKO/hPar4 clone/s, overexpressing PAR4 (FIGS. 9A and 9B).

Where [1] appears, read: RKO/PAR4 derived small tumors generated in the presence of the inhibitor vs large tumors.

As for “Pc(4-4): backbone cyclic analog of Formula I, m=n=4, ring size 30 atoms (S[GlyBU(C4)]EFRDK[GlyBU(C4)]; bridge 2-8 via CO; not fully specified; printed as SZ1EFRDKX3)”, the “tumor growth / tumor size” value is on record as “significantly smaller tumors”. Under setting [1], the “apoptosis in tumors (active caspase-3 IHC)” value is “induced levels of active caspase-3” and the “proliferation in tumors (ki67 IHC)” value was “little”. Further, the “apoptosis in tumors (active caspase-3 IHC)” value (RKO/PAR4 derived small tumors generated in the presence of the inhibitor vs large tumors, listed as PAR4 c(4-4)) is “high levels of active caspase-3”. The “difference between treatment started at the day of inoculation or 4 days after inoculation” value (RKO/Par4 stable clones in nude mice) was “no statistical difference”. Further, the “tumor growth / tumor size” value (listed as PAR4 c(4-4)) was “potently inhibits”. For the same substance, the “tumor growth / tumor size” value (listed as PAR(4-4)) is recorded as “markedly small tumors”.
